In patent US12581252B2, “Substituted pyrrolo[3,4-b]pyridines as PI3K-α inhibitors” (Relay Therapeutics, Inc., priority 2020, dated 2026) one finds IC50 data, which are given here for 45 compounds.

A value given as a limit tells only on which side of the number the result lay.

The target of this experiment is H1047R PIK3CA enzyme (Homo sapiens, UniProt P42336, H1047R). The experiment can be described thus: ADP-Glo Biochemical PIK3CA Kinase Assay. As to the method: Compounds to be assayed were plated in 16 doses of 1:2 serial dilutions (20 nL volume each well) on a 1536-well plate, and the plate warmed to room temperature. […] To the well was added 1 μL of 200 μM ATP and 20 μM of diC8-PIP2 in Substrate Assay Buffer (50 mM HEPES pH7.4, 50 mM NaCl, 5 mM DTT and 0.03% CHAPS) to start the reaction, and the plate was shaken for 10 seconds, then spun briefly at 1500 rpm, and then incubated for 60 minutes at room temperature. The reaction was stopped by adding 2 μL of ADP-Glo reagent (Promega), and spinning briefly at 1500 rpm, and then incubating for 40 minutes. ADP-Glo Detection reagent (Promega) was added and the plate spun briefly at 1500 rpm, then incubated for 30 minutes.
Sequence of H1047R PIK3CA enzyme (P42336 whole entry H1047R): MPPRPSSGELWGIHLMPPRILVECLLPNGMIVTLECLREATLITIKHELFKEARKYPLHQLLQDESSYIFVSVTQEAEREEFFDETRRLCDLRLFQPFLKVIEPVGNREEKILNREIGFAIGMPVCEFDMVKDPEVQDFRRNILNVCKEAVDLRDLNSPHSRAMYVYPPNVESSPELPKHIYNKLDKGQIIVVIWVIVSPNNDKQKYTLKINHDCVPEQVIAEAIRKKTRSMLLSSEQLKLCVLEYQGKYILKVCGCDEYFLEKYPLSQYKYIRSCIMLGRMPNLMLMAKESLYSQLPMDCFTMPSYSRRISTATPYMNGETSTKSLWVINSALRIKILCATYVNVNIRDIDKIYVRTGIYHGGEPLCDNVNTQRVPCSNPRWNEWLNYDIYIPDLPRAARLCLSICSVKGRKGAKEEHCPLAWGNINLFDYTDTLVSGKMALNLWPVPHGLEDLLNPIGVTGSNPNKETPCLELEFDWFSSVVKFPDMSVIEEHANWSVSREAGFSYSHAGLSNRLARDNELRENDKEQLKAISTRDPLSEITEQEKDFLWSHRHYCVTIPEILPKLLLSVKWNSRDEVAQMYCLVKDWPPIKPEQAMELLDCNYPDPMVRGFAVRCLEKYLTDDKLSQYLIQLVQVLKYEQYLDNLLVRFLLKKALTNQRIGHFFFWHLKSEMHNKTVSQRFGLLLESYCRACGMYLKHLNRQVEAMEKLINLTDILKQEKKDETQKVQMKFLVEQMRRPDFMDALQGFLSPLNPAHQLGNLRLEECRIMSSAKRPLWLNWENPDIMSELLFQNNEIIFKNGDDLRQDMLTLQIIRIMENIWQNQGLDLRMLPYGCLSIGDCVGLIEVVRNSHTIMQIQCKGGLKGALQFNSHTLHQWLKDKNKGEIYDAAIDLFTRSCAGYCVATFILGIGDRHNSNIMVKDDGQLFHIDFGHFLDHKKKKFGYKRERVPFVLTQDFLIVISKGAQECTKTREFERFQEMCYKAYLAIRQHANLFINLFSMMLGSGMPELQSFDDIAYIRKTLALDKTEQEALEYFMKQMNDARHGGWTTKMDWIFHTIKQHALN
Sequence of H1047R PIK3CA enzyme (P27986 whole entry partner): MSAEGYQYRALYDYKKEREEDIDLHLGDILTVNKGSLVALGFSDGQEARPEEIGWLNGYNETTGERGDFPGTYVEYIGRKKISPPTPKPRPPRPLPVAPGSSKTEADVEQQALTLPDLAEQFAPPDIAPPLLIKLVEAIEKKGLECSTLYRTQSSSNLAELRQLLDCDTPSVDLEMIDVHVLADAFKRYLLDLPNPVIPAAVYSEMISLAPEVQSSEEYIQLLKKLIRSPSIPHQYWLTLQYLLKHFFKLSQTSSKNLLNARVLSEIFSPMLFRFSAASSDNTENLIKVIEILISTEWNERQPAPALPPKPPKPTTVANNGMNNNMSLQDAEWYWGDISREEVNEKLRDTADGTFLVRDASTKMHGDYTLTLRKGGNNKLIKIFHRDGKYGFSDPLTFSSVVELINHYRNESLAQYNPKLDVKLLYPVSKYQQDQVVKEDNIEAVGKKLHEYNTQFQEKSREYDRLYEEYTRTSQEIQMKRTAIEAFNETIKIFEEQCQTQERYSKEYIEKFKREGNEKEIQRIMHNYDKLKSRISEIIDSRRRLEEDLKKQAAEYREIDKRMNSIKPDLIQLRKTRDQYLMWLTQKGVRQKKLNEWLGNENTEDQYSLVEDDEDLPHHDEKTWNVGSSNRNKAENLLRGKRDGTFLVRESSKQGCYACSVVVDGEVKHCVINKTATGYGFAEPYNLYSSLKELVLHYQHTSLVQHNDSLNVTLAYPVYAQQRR
(In ADP-Glo the light output rises with the ADP produced.)
In turn, `C[C@H](c1cc(NC(=O)c2cc(F)cc(C(F)(F)F)c2)c2c(c1)C(=O)N[C@@H]2c1cc(F)ccc1Cl)S(C)(=O)=O` (single isomer, unassigned) [Compound I-1643] had an IC50 of 1 to 10 µM.
The figure for `N#Cc1cc2ncnn2cc1-c1cc(NC(=O)c2cc(F)cc(C(F)(F)F)c2)c2c(c1)C(=O)N[C@@H]2c1cc(F)ccc1Cl` (single isomer, unassigned) [Compound I-1646] is ≤ 0.1 µM; for `O=C1C[C@H](c2cc(NC(=O)c3cc(F)cc(C(F)(F)F)c3)c3c(c2)C(=O)N[C@H]3c2cc(F)ccc2Cl)CN1` (single isomer, unassigned) [Compound I-1709] it is ≤ 0.1 µM.
The figure for `O=C1C[C@@H](c2cc(NC(=O)c3cc(F)cc(C(F)(F)F)c3)c3c(c2)C(=O)N[C@H]3c2cc(F)ccc2Cl)CN1` (single isomer, unassigned) [Compound I-1710] is ≤ 0.1 µM; for `O=C1C[C@H](c2cc(NC(=O)c3cc(F)cc(C(F)(F)F)c3)c3c(c2)C(=O)N[C@@H]3c2cc(F)ccc2Cl)CN1` (single isomer, unassigned) [Compound I-1711] it is 1 to 10 µM; for `O=C1C[C@@H](c2cc(NC(=O)c3cc(F)cc(C(F)(F)F)c3)c3c(c2)C(=O)N[C@@H]3c2cc(F)ccc2Cl)CN1` (single isomer, unassigned) [Compound I-1712] it is 1 to 10 µM.
`O=C(Nc1cc(-c2cnn(C(F)F)c2)cc2c1[C@@H](c1cc(F)ccc1Cl)NC2=O)c1cc(F)cc(C(F)(F)F)c1` (single isomer, unassigned) [Compound I-1739] gave an IC50 of 1 to 10 µM.
To `[2H]C([2H])(c1cc(NC(=O)c2cc(F)cc(C(F)(F)F)c2)c2c(c1)C(=O)N[C@@H]2c1cc(F)ccc1Cl)S(C)(=O)=O` (single isomer, unassigned) [Compound I-1788] belongs 0.1 to 0.5 µM; to `[2H]C([2H])(c1cc(NC(=O)c2cc(F)cc(C(F)(F)F)c2)c2c(c1)C(=O)N[C@H]2c1cc(F)ccc1Cl)S(C)(=O)=O` (single isomer, unassigned) [Compound I-1789], ≤ 0.1 µM.
`O=C1NC(c2cc(F)ccc2Cl)c2c(NC(=O)N3C[C@H](O)[C@@H](C(F)(F)F)C3)cc(-c3ccc4ncnn4c3)cc21` (single isomer, unassigned) [Compound I-1902] gave a 50% inhibitory concentration (IC50) of 1 to 10 µM.
On to `O=C1N[C@H](c2cc(F)ccc2Cl)c2c1cc(-c1ccc3ncnn3c1)cc2S(=O)(=O)Cc1ccccc1` (single isomer, unassigned) [Compound I-1905], for which the IC50 lay in the range of 1 to 10 µM.
Turning to `O=C1N[C@@H](c2cc(F)ccc2Cl)c2c1cc(-c1ccc3ncnn3c1)cc2S(=O)(=O)Cc1ccccc1` (single isomer, unassigned) [Compound I-1906], the IC50 fell in the range of 10 to 100 µM.
Turning to `C[C@H](C#N)n1cc(-c2cc(NC(=O)c3cc(F)cc(C(F)(F)F)c3)c3c(c2)C(=O)N[C@@H]3c2cc(F)ccc2Cl)cn1` (single isomer, unassigned) [Compound I-1915], the IC50 lay in the range of 1 to 10 µM.
On to `C[C@H](C#N)n1cc(-c2cc(NC(=O)c3cc(F)cc(C(F)(F)F)c3)c3c(c2)C(=O)N[C@H]3c2cc(F)ccc2Cl)cn1` (single isomer, unassigned) [Compound I-1916], for which the IC50 was ≤ 0.1 µM.
To `O=C1NC(c2cc(F)ccc2Cl)c2c(NC(=O)C3CCCN(CC(F)(F)F)C3)cc(-c3ccc4ncnn4c3)cc21` (single isomer, unassigned) [Compound I-1964] belongs 10 to 100 µM.
`O=C(Nc1cccc2c1C([C@@H]1CCCC[C@H]1O)NC2=O)c1cc(F)cc(C(F)(F)F)c1` (single isomer, unassigned) [Compound I-1971] returned an IC50 of 10 to 100 µM.
The figure for `O=C(Nc1cccc2c1C([C@H]1CCCC[C@@H]1O)NC2=O)c1cc(F)cc(C(F)(F)F)c1` (single isomer, unassigned) [Compound I-1972] is 10 to 100 µM.
The figure for `O=C1NC(c2cc(F)ccc2Cl)c2c(NC(=O)[C@@H]3CC[C@H](O)C3)cc(Br)cc21` (single isomer, unassigned) [Compound I-1975] is 10 to 100 µM.
Turning to `O=C1NC(c2cc(F)ccc2Cl)c2c(NC(=O)[C@@H]3CC[C@@H](O)C3)cc(Br)cc21` (single isomer, unassigned) [Compound I-1976], the IC50 was in the range of 10 to 100 µM.
`O=C1NC(c2cc(F)ccc2Cl)c2c(NC(=O)N3C[C@@H](C(F)(F)F)[C@@H](O)C3)cc(-c3ccc4ncnn4c3)cc21` (single isomer, unassigned) [Compound I-1978]: the IC50 is 1 to 10 µM.
Compound `C[C@H](C#N)Oc1cc(NC(=O)c2cc(F)cc(C(F)(F)F)c2)c2c(c1)C(=O)N[C@@H]2c1cc(F)ccc1Cl` (single isomer, unassigned) [Compound I-2005] registered an IC50 of 1 to 10 µM.
The figure for `C[C@H](C#N)Oc1cc(NC(=O)c2cc(F)cc(C(F)(F)F)c2)c2c(c1)C(=O)N[C@H]2c1cc(F)ccc1Cl` (single isomer, unassigned) [Compound I-2006] is ≤ 0.1 µM.
The compound `C[C@@H](C#N)Oc1cc(NC(=O)c2cc(F)cc(C(F)(F)F)c2)c2c(c1)C(=O)N[C@@H]2c1cc(F)ccc1Cl` (single isomer, unassigned) [Compound I-2007] yielded an IC50 of 1 to 10 µM.
The figure for `C[C@@H](C#N)Oc1cc(NC(=O)c2cc(F)cc(C(F)(F)F)c2)c2c(c1)C(=O)N[C@H]2c1cc(F)ccc1Cl` (single isomer, unassigned) [Compound I-2009] is ≤ 0.1 µM; for `O=C1N[C@@H](c2cc(F)ccc2Cl)c2c(NC(=O)[C@H]3CC[C@@H](O)C3)cc(Br)cc21` (single isomer, unassigned) [Compound I-2102] it is 10 to 100 µM.
The figure for `O=C1N[C@H](c2cc(F)ccc2Cl)c2c(NC(=O)[C@H]3CC[C@@H](O)C3)cc(Br)cc21` (single isomer, unassigned) [Compound I-2103] is 10 to 100 µM; for `O=C1N[C@@H](c2cc(F)ccc2Cl)c2c(NC(=O)[C@@H]3CC[C@H](O)C3)cc(Br)cc21` (single isomer, unassigned) [Compound I-2104] it is 10 to 100 µM.
The compound `O=C1N[C@H](c2cc(F)ccc2Cl)c2c(NC(=O)[C@@H]3CC[C@H](O)C3)cc(Br)cc21` (single isomer, unassigned) [Compound I-2105] showed an IC50 of 10 to 100 µM.
The figure for `O=C(Nc1cccc2c1[C@H](C1CCCC[C@@H]1O)NC2=O)c1cc(F)cc(C(F)(F)F)c1` (single isomer, unassigned) [Compound I-2110] is 10 to 100 µM.
For the compound `O=C1N[C@H](c2cc(F)ccc2Cl)c2c(NC(=O)N3CCC[C@@](O)(C(F)(F)F)C3)cccc21` (single isomer, unassigned) [Compound I-2113], the IC50 fell in the range of 10 to 100 µM.
The figure for `O=C1N[C@H](c2cc(F)ccc2Cl)c2c(NC(=O)N3CCC[C@](O)(C(F)(F)F)C3)cccc21` (single isomer, unassigned) [Compound I-2114] is 10 to 100 µM; for `O=C1N[C@@H](c2cc(F)ccc2Cl)c2c(NC(=O)N3CCC[C@](O)(C(F)(F)F)C3)cccc21` (single isomer, unassigned) [Compound I-2115] it is 10 to 100 µM; for `O=C1N[C@@H](c2cc(F)ccc2Cl)c2c(NC(=O)N3CCC[C@@](O)(C(F)(F)F)C3)cccc21` (single isomer, unassigned) [Compound I-2116] it is 10 to 100 µM.
In the case of `CC(C)(O)c1cc(NC(=O)N2C[C@H](O)c3ccccc32)c2c(c1)C(=O)N[C@@H]2c1cc(F)ccc1Cl` (single isomer, unassigned) [Compound I-2121], the half-inhibitory concentration (IC50) was in the range of 1 to 10 µM.
To `CC(C)(O)c1cc(NC(=O)N2C[C@@H](O)c3ccccc32)c2c(c1)C(=O)N[C@@H]2c1cc(F)ccc1Cl` (single isomer, unassigned) [Compound I-2122] belongs 10 to 100 µM.
To `CC(C)(O)c1cc(NC(=O)N2C[C@H](O)c3ccccc32)c2c(c1)C(=O)N[C@H]2c1cc(F)ccc1Cl` (single isomer, unassigned) [Compound I-2123] belongs 0.5 to 1 µM; to `O=C1N[C@@H](c2cc(F)ccc2Cl)c2c(NC(=O)N3C[C@H](O)c4cc(F)ccc43)cccc21` (single isomer, unassigned) [Compound I-2126], 0.5 to 1 µM.
The figure for `O=C1N[C@H](c2cc(F)ccc2Cl)c2c(NC(=O)N3C[C@H](O)c4cc(F)ccc43)cccc21` (single isomer, unassigned) [Compound I-2128] is 10 to 100 µM; for `O=C1N[C@H](c2cc(F)ccc2Cl)c2c(NC(=O)N3C[C@@H](O)c4cc(F)ccc43)cccc21` (single isomer, unassigned) [Compound I-2129] it is 10 to 100 µM; for `Nc1cc(NC(=O)N2C[C@H](O)c3ccccc32)c2c(c1)C(=O)N[C@@H]2c1cc(F)ccc1Cl` (single isomer, unassigned) [Compound I-2130] it is 1 to 10 µM.
Compound `Nc1cc(NC(=O)N2C[C@@H](O)c3ccccc32)c2c(c1)C(=O)N[C@@H]2c1cc(F)ccc1Cl` (single isomer, unassigned) [Compound I-2131] displayed an IC50 of 1 to 10 µM.
To `Nc1cc(NC(=O)N2C[C@H](O)c3ccccc32)c2c(c1)C(=O)N[C@H]2c1cc(F)ccc1Cl` (single isomer, unassigned) [Compound I-2132] belongs ≤ 0.1 µM; to `O=C1N[C@H](c2cc(F)ccc2Cl)c2c(NC(=O)N3C[C@H](O)c4c(F)cccc43)cccc21` (single isomer, unassigned) [Compound I-2143], 0.5 to 1 µM; to `O=C1N[C@@H](c2cc(F)ccc2Cl)c2c(NC(=O)N3C[C@@H](O)c4c(F)cccc43)cccc21` (single isomer, unassigned) [Compound I-2144], 1 to 10 µM.
`O=C1N[C@H](c2cc(F)ccc2Cl)c2c(NC(=O)N3C[C@@H](O)c4c(F)cccc43)cccc21` (single isomer, unassigned) [Compound I-2145] had an IC50 of 1 to 10 µM.

The term IC50 denotes the concentration needed to halve the response being measured. A higher IC50 goes with lower potency.
